This is an account of results in patent US9290459B1, “Substituted bicyclic dihydropyrimidinones and their use as inhibitors of neutrophil elastase activity” (Boehringer Ingelheim International GmbH, priority 2013, dated 2016).

≈ marks a conversion by molar mass, not a printed value.

Data set [1] addresses Human neutrophil elastase (Homo sapiens (Human), UniProt P08246). Briefly: Human Neutrophil Elastase Assay. The class given is biochemical. To be noted: human neutrophil elastase, substrate MeOSuc-Ala-Ala-Pro-Val-AMC 250 μM, pH 7.5; read-out: IC50.
The target of data set [2] is neutrophil elastase in human plasma (Homo sapiens (Human), UniProt P08246). Briefly: Neutrophil elastase inhibitory activity in human plasma (zymosan-stimulated blood). The class given is biochemical. As to conditions: neutrophil elastase enriched human plasma from zymosan-stimulated blood; read-out: EC50.
Description: Assay for the Determination of Neutrophil Elastase Inhibitory Activity in Human Plasma
Citrated blood from human healthy donors is mixed with zymosan suspension and incubated at room temperature. This leads to the stimulation of neutrophils and the release of neutrophil elastase into the plasma. The stimulated blood is centrifuged to generate the neutrophil elastase enriched plasma.
Various concentrations of the neutrophil elastase inhibitor are incubated with plasma. […] A dose response curve is generated to calculate the EC50 of the inhibitor.
Data set [3] in a line: Metabolic stability with human liver microsomes. It is filed as in vitro ADME. As to conditions: human, microsomes; for half-life at 1 μM: pH 7.6. Background: Microsomes from liver hold many membrane-bound enzymes, among them those of drug oxidation.
A further data set deals with human hepatocytes. Briefly: Metabolic stability with human hepatocytes. The class given is in vitro ADME. As to conditions: for CL (predicted human hepatic in vivo blood clearance): human hepatocyte suspension, 1 μM test compound, scaled with well stirred model.
A short description of data set [4]: Drug transport across human Caco-2 cells. The class given is in vitro ADME. To be noted: human; for Papp A→B at 10 µM / Papp B→A at 10 µM: Caco-2, pH 7.2, Caco-2 monolayers, pH 7.2, 37° C.; for Papp A→B at 10 µM: apical-to-basal, read-out: PEAB; for Papp B→A at 10 µM: basal-to-apical, read-out: PEBA; for efflux ratio at 10 μM: Caco-2, pH 7.2, PEBA/PEAB, Caco-2. In general terms: Passage across Caco-2 layers is used to estimate intestinal permeability.

A further data set in a line: Aqueous solubility. As to conditions: McIlvaine buffer pH 6.8 with 2.5% DMSO, pH 6.8, aqueous buffer, kinetic from dmso stock, McIlvaine buffer pH 6.8, 2.5% DMSO, 24 h shaking. The class given is physicochemical. How it is done:
Assay for Determination of Aqueous Solubility […] After 24 h of shaking, the solutions or suspensions are filtered and analyzed by LC-UV. The amount dissolved in buffer is compared to the amount dissolved in the acetonitrile/water (1/1) solution.

The target in a further data set is cytochrome P450 2C9 (Homo sapiens (Human), UniProt P11712). The data set can be described thus: Cytochrome P450 2C9 inhibition. It is filed as in vitro ADME. To be noted: human liver microsomes; for IC50: Diclofenac hydroxylation, read-out: CYP2C9 IC50.
In a further data set the target is cytochrome P450 2C19 (Homo sapiens (Human), UniProt P33261). The data set can be described thus: Cytochrome P450 2C19 inhibition. It is filed as in vitro ADME. To be noted: human liver microsomes; for IC50: (S)-Mephenytoin hydroxylation, read-out: CYP2C19 IC50.
The next data set has as its target cytochrome P450 2C8 (Homo sapiens (Human), UniProt P10632). Briefly: Cytochrome P450 2C8 inhibition. It is filed as in vitro ADME. As to conditions: human liver microsomes; for IC50: Amodiaquine deethylation, read-out: CYP2C8 IC50.
A further data set has as its system Caco-2 cells. Briefly: Drug transport across human Caco-2 cells. The class given is in vitro ADME. To be noted: Caco-2, pH 7.2, 37° C.; compared to prior-art cyclic amide derivative.
[5] abbreviates: compared to example 8A disclosed in WO 2005/0828683.

Chain of Human neutrophil elastase (P08246 30-247): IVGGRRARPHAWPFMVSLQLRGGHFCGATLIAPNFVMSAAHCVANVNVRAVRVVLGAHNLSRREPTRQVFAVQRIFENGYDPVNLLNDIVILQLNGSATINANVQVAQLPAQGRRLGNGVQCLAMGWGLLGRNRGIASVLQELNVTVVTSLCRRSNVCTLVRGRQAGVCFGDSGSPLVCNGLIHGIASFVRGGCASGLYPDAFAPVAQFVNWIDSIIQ
Chain of neutrophil elastase in human plasma (P08246 30-247): as above
Chain of cytochrome P450 2C9 (P11712 whole entry): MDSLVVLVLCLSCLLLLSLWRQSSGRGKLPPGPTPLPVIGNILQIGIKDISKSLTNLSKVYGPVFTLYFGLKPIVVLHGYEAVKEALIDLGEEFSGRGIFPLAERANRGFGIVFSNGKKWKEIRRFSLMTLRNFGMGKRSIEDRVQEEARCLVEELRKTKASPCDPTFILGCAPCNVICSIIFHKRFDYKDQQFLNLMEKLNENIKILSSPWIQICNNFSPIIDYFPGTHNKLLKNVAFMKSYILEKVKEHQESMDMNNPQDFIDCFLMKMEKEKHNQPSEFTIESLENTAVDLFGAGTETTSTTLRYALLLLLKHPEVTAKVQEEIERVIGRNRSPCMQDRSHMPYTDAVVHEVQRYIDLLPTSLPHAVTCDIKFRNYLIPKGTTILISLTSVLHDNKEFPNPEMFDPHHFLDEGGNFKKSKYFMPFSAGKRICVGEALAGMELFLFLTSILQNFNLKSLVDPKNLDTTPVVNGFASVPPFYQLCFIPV
Chain of cytochrome P450 2C19 (P33261 whole entry): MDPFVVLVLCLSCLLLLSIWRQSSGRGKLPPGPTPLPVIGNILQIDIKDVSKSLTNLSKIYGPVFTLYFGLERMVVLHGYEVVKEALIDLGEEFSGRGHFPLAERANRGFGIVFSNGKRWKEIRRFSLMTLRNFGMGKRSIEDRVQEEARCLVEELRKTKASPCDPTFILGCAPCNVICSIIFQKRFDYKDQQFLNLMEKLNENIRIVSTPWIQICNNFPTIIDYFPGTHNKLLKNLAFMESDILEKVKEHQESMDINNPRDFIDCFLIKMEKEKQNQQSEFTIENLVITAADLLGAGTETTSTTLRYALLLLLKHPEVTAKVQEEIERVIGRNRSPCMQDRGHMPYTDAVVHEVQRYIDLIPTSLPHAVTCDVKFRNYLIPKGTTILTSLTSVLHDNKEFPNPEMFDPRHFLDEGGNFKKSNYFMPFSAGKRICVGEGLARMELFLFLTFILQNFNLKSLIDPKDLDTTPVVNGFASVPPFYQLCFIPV
Chain of cytochrome P450 2C8 (P10632 whole entry): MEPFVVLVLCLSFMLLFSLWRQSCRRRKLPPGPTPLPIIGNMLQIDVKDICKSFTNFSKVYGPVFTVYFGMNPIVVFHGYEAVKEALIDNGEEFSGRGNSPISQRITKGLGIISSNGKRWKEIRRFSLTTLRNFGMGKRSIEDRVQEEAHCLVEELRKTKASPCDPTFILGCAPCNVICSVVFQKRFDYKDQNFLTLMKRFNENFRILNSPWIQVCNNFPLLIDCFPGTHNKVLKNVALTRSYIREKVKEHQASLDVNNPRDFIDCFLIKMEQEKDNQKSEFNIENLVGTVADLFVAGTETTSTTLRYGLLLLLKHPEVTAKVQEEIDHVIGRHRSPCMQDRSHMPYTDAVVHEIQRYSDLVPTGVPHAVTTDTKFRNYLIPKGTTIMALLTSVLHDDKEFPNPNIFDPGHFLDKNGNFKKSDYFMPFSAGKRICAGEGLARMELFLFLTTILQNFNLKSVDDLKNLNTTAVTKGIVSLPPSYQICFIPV

Usually IC50 stands for the concentration that inhibits the measured activity by half. A word on the EC50: it is the concentration that produces a half-maximal response. For orientation: half-life means the time in which the quantity being followed falls by half. A high value points to slow decline. As usually defined, the solubility is how much of the substance goes into solution per volume. Low readings indicate a poorly soluble substance, high ones a readily soluble substance. `CCNC(=O)N1C(=O)N(c2cccc(C(F)(F)F)c2)C2=C(C(=O)CC2)[C@H]1c1ccc(C#N)cc1S(C)(=O)=O` [Example 47.2]: the IC50 in data set [1] is under 0.001 µM; at cytochrome P450 2C9, over 50 µM; at cytochrome P450 2C19, over 50 µM; at cytochrome P450 2C8, over 50 µM. Besides, the concentration giving a half-maximal response (EC50) in [2] was under 0.001 µM. Also, the half-life at 1 μM in [3] was over 2.17 h. Moreover, in the data set with human hepatocytes, the “CL (predicted human hepatic in vivo blood clearance)” value is 1 mL/min/kg. The Papp A→B at 10 µM in data set [4] worked out at 12.8 ×10⁻⁶ cm/s. In addition, in [4], the Papp B→A at 10 µM is 84.5 ×10⁻⁶ cm/s. Further, the solubility at 24 h in “Aqueous solubility” stood at 45 µg/mL (≈ 82.3 µM).

Regarding `N#Cc1ccc([C@H]2NC(=O)N(c3cccc(C(F)(F)F)c3)C3=C2C(=O)CC3)cc1` [Example 1A, (R)-4-(2,5-Dioxo-1-(3-(trifluoromethyl)phenyl)-2,3,4,5,6,7-hexahydro-1H-cyclopenta[d]pyrimidin-4-yl)benzonitrile], in data set [3], the “half-life (t1/2 INVITRO), metabolic stability” value is “improved half life” and the half-life at 1 μM is over 2.17 h. Besides, the “CL (predicted human hepatic in vivo blood clearance)” value in the data set on human hepatocytes is 6 mL/min/kg. In the data set with human hepatocytes (human hepatocytes, compared to example 8A disclosed in WO 2005/0828683), the “predicted human hepatic in vivo blood clearance (CL)” value is “reduced clearance”. For the same compound, in [4], the Papp A→B at 10 µM was found to be 51 ×10⁻⁶ cm/s and the Papp B→A at 10 µM was 76.4 ×10⁻⁶ cm/s. Besides, the “AB permeability (PEAB)” value with Caco-2 cells is “improved AB permeability”. This compound also had a solubility at 24 h in the data set “Aqueous solubility” of 74 µg/mL (≈ 186 µM). Further, on cytochrome P450 2C9 (setting [5]), the CYP2C9 inhibition result is reported as “reduced CYP2C9 inhibition”. The CYP2C19 inhibition entry on cytochrome P450 2C19 (compared to example 8A in WO 2005/0828683) is “reduced CYP2C19 inhibition”. For the same compound, on cytochrome P450 2C8 (setting [5]), the CYP2C8 inhibition entry was “reduced CYP2C8 inhibition”.

The efflux ratio is the permeability from basolateral to apical divided by that in the opposite direction, in the common usage. Take `CS(=O)(=O)c1cc(C#N)ccc1[C@H]1NC(=O)N(c2cccc(C(F)(F)F)c2)C2=C1C(=O)CC2` [Example 10A, (S)-4-(2,5-Dioxo-1-(3-(trifluoromethyl)phenyl)-2,3,4,5,6,7-hexahydro-1H-cyclopenta[d]pyrimidin-4-yl)-3-(methylsulfonyl)benzonitrile]: the concentration for half-maximal inhibition (IC50) in data set [1] is 0.0026 µM; at cytochrome P450 2C9 it was over 50 µM; on cytochrome P450 2C19, 39 µM; at cytochrome P450 2C8, over 50 µM. Moreover, in data set [2], the EC50 is 0.001 µM. The half-life at 1 μM in data set [3] is over 2.17 h. Also, the “CL (predicted human hepatic in vivo blood clearance)” value with human hepatocytes is 0 mL/min/kg. Moreover, the Papp A→B at 10 µM in data set [4] came out at 4.93 ×10⁻⁶ cm/s. Also, the Papp B→A at 10 µM in data set [4] amounted to 57.4 ×10⁻⁶ cm/s. Further, in data set [4], the efflux ratio at 10 μM came out at 14.5. Moreover, in the data set on Caco-2 cells, the “AB permeability (PEAB)” value is on record as “improved AB permeability”. This compound also registered a solubility at 24 h in “Aqueous solubility” of 84.5 µg/mL (≈ 178 µM).

As for `CS(=O)(=O)N1C(=O)N(c2cccc(C(F)(F)F)c2)C2=C(C(=O)CC2)[C@H]1c1ccc(C#N)cc1` [Example 9A, (R)-4-(3-(Methylsulfonyl)-2,5-dioxo-1-(3-(trifluoromethyl)phenyl)-2,3,4,5,6,7-hexahydro-1H-cyclopenta[d]pyrimidin-4-yl)benzonitrile], the IC50 in data set [1] is 0.003 µM; at cytochrome P450 2C9, over 50 µM; at cytochrome P450 2C19 it was over 50 µM; at cytochrome P450 2C8 it was over 50 µM. For the same compound, the EC50 in data set [2] is 0.002 µM. The compound further registered a half-life at 1 μM in [3] of over 2.17 h. For the same compound, in the data set with human hepatocytes, the “CL (predicted human hepatic in vivo blood clearance)” value was 0 mL/min/kg. Besides, the Papp A→B at 10 µM in data set [4] worked out at 43.9 ×10⁻⁶ cm/s. Also, the Papp B→A at 10 µM in data set [4] worked out at 73 ×10⁻⁶ cm/s. Besides, the efflux ratio at 10 μM in data set [4] worked out at 1.7.

On to `CNC(=O)N1C(=O)N(c2cccc(C(F)(F)F)c2)C2=C(C(=O)CC2)[C@H]1c1ccc(C#N)cc1S(C)(=O)=O` [Example 47.1], for which the concentration for half-maximal inhibition (IC50) in data set [1] is under 0.001 µM; at cytochrome P450 2C9, over 50 µM; on cytochrome P450 2C19, over 50 µM; at cytochrome P450 2C8 it was over 50 µM. For the same compound, in data set [2], the 50% effective concentration (EC50) was under 0.001 µM. The same compound came in with a half-life at 1 μM in data set [3] of over 2.17 h. Further, the “CL (predicted human hepatic in vivo blood clearance)” value in the data set on human hepatocytes is 0 mL/min/kg. For the same compound, the Papp A→B at 10 µM in [4] worked out at 8.13 ×10⁻⁶ cm/s. Further, in [4], the Papp B→A at 10 µM was 65.1 ×10⁻⁶ cm/s. The efflux ratio at 10 μM in data set [4] is 8. The compound also returned a solubility at 24 h in the data set “Aqueous solubility” of 83 µg/mL (≈ 156 µM).

For `CC(C)(O)CNC(=O)N1C(=O)N(c2cccc(C(F)(F)F)c2)C2=C(C(=O)CC2)[C@H]1c1ccc(C#N)cc1` [Example 41A, (R)-4-(4-Cyanophenyl)-N-(2-hydroxy-2-methylpropyl)-2,5-dioxo-1-(3-(trifluoro-methyl)phenyl)-4,5,6,7-tetrahydro-1H-cyclopenta[d]pyrimidine-3(2H)-carboxamide], the 50% inhibitory concentration (IC50) was under 0.001 µM in [1], over 50 µM at cytochrome P450 2C9, over 50 µM at cytochrome P450 2C19 and over 50 µM on cytochrome P450 2C8. In data set [2], the EC50 is under 0.001 µM. Also, in data set [3], the half-life at 1 μM was over 2.17 h. Further, the “CL (predicted human hepatic in vivo blood clearance)” value in the data set on human hepatocytes was 0 mL/min/kg. In data set [4], the Papp A→B at 10 µM was found to be 11.1 ×10⁻⁶ cm/s. The Papp B→A at 10 µM in data set [4] turned out to be 75.1 ×10⁻⁶ cm/s. For the same compound, the efflux ratio at 10 μM in [4] is 6.8. Also, the concentration in solution in “Aqueous solubility” (solubility at 24 h) came to 79 µg/mL (≈ 154 µM).
